Test results published in PubChem BioAssay (NCI).
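Growth conditions: 96-well plates. Treatment: test compound, 48 hours, 5 concentrations. Analysis: linear interpolation between bracketing concentrations; unreached endpoints set to highest concentration. TGI: concentration producing complete growth inhibition.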

Legend:
Assay in all cases: DTP human tumour cell line panel, 48 h
[1] = test system: 786-0 renal
[2] = test system: A498 renal
[3] = test system: A549 NSCLC
[4] = test system: ACHN renal
[5] = test system: BT-549 breast
[6] = test system: CAKI-1 renal
[7] = test system: CCRF-CEM leukemia
[8] = test system: COLO 205 colon
[9] = test system: DU-145 prostate
[10] = test system: EKVX NSCLC
[11] = test system: HCC-2998 colon
[12] = test system: HCT-116 colon
[13] = test system: HCT-15 colon
[14] = test system: HL-60(TB) leukemia
[15] = test system: HOP-62 NSCLC
[16] = test system: HOP-92 NSCLC
[17] = test system: HS 578T breast
[18] = test system: HT29 colon
[19] = test system: IGROV1 ovarian
[20] = test system: K-562 leukemia
[21] = test system: KM12 colon
[22] = test system: LOX IMVI melanoma
[23] = test system: M14 melanoma
[24] = test system: MALME-3M melanoma
[25] = test system: MCF7 breast
[26] = test system: MDA-MB-231 breast
[27] = test system: MDA-MB-435
[28] = test system: MDA-N
[29] = test system: MOLT-4 leukemia
[30] = test system: NCI-H226 lung
[31] = test system: NCI-H23 lung
[32] = test system: NCI-H460 lung
[33] = test system: NCI-H522 lung
[34] = test system: NCI/ADR-RES ovarian
[35] = test system: OVCAR-3 ovarian
[36] = test system: OVCAR-4 ovarian
[37] = test system: OVCAR-5 ovarian
[38] = test system: OVCAR-8 ovarian
[39] = test system: PC-3 prostate
[40] = test system: RPMI-8226 leukemia
[41] = test system: RXF 393 renal
[42] = test system: SF-268 CNS
[43] = test system: SF-295 CNS
[44] = test system: SF-539 CNS
[45] = test system: SK-MEL-2 melanoma
[46] = test system: SK-MEL-28 melanoma
[47] = test system: SK-MEL-5 melanoma
[48] = test system: SK-OV-3 ovarian
[49] = test system: SN12C renal
[50] = test system: SNB-19 CNS
[51] = test system: SNB-75 CNS
[52] = test system: SR leukemia
[53] = test system: T-47D breast
[54] = test system: TK-10 renal
[55] = test system: U251 CNS
[56] = test system: UACC-257 melanoma
[57] = test system: UACC-62 melanoma
[58] = test system: UO-31 renal
[59] = test system: SW-620 colon

With `CCN(CC)C(=O)CCN1CC1` the TGI [1] was greater than 10 µM, the TGI [2] was greater than 10 µM and the TGI [3] was greater than 10 µM. The TGI [4] was greater than 10 µM, the TGI [5] was greater than 10 µM and the TGI [6] was greater than 10 µM. It also gave a TGI [7] greater than 10 µM, a TGI [8] greater than 10 µM and a TGI [9] greater than 10 µM. For the same compound, the TGI [10] was greater than 10 µM, the TGI [11] was greater than 10 µM and the TGI [12] was greater than 10 µM. It also gave a TGI [13] greater than 10 µM, a TGI [14] greater than 10 µM and a TGI [15] greater than 10 µM. The TGI [16] was greater than 10 µM, the TGI [17] was greater than 10 µM and the TGI [18] was greater than 10 µM. For the same compound, the TGI [19] was greater than 10 µM, the TGI [20] was greater than 10 µM and the TGI [21] was greater than 10 µM. It also gave a TGI [22] greater than 10 µM, a TGI [23] greater than 10 µM and a TGI [24] greater than 10 µM. It also gave a TGI [25] greater than 10 µM, a TGI [26] greater than 10 µM and a TGI [27] greater than 10 µM. The TGI [28] was greater than 10 µM, the TGI [29] was greater than 10 µM and the TGI [30] was greater than 10 µM. The TGI [31] was greater than 10 µM, the TGI [32] was greater than 10 µM and the TGI [33] was greater than 10 µM. The TGI [34] was greater than 10 µM, the TGI [35] was greater than 10 µM and the TGI [36] was greater than 10 µM. It also gave a TGI [37] greater than 10 µM, a TGI [38] greater than 10 µM and a TGI [39] greater than 10 µM. It also gave a TGI [40] greater than 10 µM, a TGI [41] greater than 10 µM and a TGI [42] greater than 10 µM. For the same compound, the TGI [43] was greater than 10 µM, the TGI [44] was greater than 10 µM and the TGI [45] was greater than 10 µM. The TGI [46] was greater than 10 µM, the TGI [47] was greater than 10 µM and the TGI [48] was greater than 10 µM. It also gave a TGI [49] greater than 10 µM, a TGI [50] greater than 10 µM and a TGI [51] greater than 10 µM. It also gave a TGI [52] greater than 10 µM, a TGI [53] greater than 10 µM and a TGI [54] greater than 10 µM. It also gave a TGI [55] greater than 10 µM, a TGI [56] greater than 10 µM and a TGI [57] greater than 10 µM. The TGI [58] was greater than 10 µM.
`Cc1cc(S(=O)(=O)/N=C(/NN)Nc2ccc(Cl)cc2)c(S)cc1Cl` showed a TGI [1] of 45.6 µM, a TGI [2] of 35.4 µM and a TGI [3] of 23.8 µM. The TGI [4] was 20 µM, the TGI [5] was 34.6 µM and the TGI [6] was 54.3 µM. The TGI [7] was 94 µM, the TGI [8] was 33 µM and the TGI [9] was 17.2 µM. The TGI [10] was 29.3 µM, the TGI [11] was 23.8 µM and the TGI [12] was 20 µM. For the same compound, the TGI [13] was 53 µM, the TGI [14] was 63.8 µM and the TGI [15] was 28 µM. For the same compound, the TGI [16] was 67.9 µM, the TGI [17] was 11.3 µM and the TGI [18] was 49.2 µM. For the same compound, the TGI [19] was 39.7 µM, the TGI [20] was greater than 100 µM and the TGI [21] was 19.3 µM. For the same compound, the TGI [22] was 30.5 µM, the TGI [23] was 34.6 µM and the TGI [24] was 37.1 µM. For the same compound, the TGI [25] was 52 µM, the TGI [26] was 84.2 µM and the TGI [27] was 25.6 µM. The TGI [28] was 22.5 µM, the TGI [29] was 58.9 µM and the TGI [30] was 43.3 µM. It also gave a TGI [32] of 17.1 µM, a TGI [33] of 42.9 µM and a TGI [34] of 23.4 µM. For the same compound, the TGI [35] was 82.2 µM, the TGI [36] was 62.8 µM and the TGI [37] was 12.9 µM. The TGI [38] was 27.3 µM, the TGI [39] was greater than 100 µM and the TGI [40] was greater than 100 µM. The TGI [41] was 78.8 µM, the TGI [42] was 61.8 µM and the TGI [44] was 42.6 µM. The TGI [45] was 76.9 µM, the TGI [46] was 60.3 µM and the TGI [47] was 19.2 µM. For the same compound, the TGI [48] was 49.5 µM, the TGI [49] was 75.8 µM and the TGI [50] was 25.3 µM. For the same compound, the TGI [51] was 28.8 µM, the TGI [52] was greater than 100 µM and the TGI [59] was 35.9 µM. The TGI [53] was 14.8 µM, the TGI [54] was 65.3 µM and the TGI [55] was 21.7 µM. The TGI [56] was 72.5 µM, the TGI [57] was 27.4 µM and the TGI [58] was 18 µM.
